Source: patent US11202814B2, “Compositions for atopic skin” (INFINITEC ACTIVOS, S.L., priority 2018, dated 2021)

Tested on: PGE2 release
Assay: Inhibitory effect on PGE2 release in cell culture, inflammation induced by IL1a
Assay type: cell-based, human
Procedure: The inhibitory effect on IL1a inflammatory induction of the non-encapsulated composition of Pinus pinaster bark extract and curcumin, capsules loaded with Pinus pinaster bark extract and curcumin, unloaded capsules, non-encapsulated composition of Pinus pinaster bark extract and non-encapsulated composition of curcumin were analysed on human dermal fibroblasts.
Human dermal fibroblasts (LIFE TECHNOLOGIES), seeded in a 96-well plate up to 80% confluency, were treated with the following compositions dissolved in medium DMEM (Dulbecco's Modified Eagle Medium) to a total volume of 1 ml: • a) pine bark extract (1%) • b) curcumin (0.01%) • c) Phosphotech phospholipids (having the same composition has described in example 2) (4%) • d) curcumin (0.01%)+pine bark extract (1%) • e) capsules (curcumin (0.01%)+pine bark extract (1%)+Phosphotech phospholipids (having the same composition has described in example 2) (4%)) for 48 hours. […] After 24 hours inhibitory effect on PGE2 in culture cell was measured using prostaglandin E2 EIA kit (Prostaglandin E2 EIA kit—Monoclonal (Item: 514010) Cayman Chemical).
The results are provided in Table 4 below wherein the PGE2 release is expressed in pg/ml. The reduction vs IL1a-induced fibroblasts is calculated as the result of PGE2 obtained for each treatment/the result of PGE2 obtained for IL1a-induced fibroblasts (without any treatment). […]

In the case of curcumin [Composition b], the “Calculated reduction vs IL1a-induced fibroblasts” value (PGE2 of treatment / PGE2 of IL1a-induced fibroblasts (2170 pg/ml)) is reported as 0.232 and the “PGE2” value (human dermal fibroblasts treated 48 hours, IL1a 5 pM, untreated IL1a-induced fibroblasts 2170, control 471 pg/ml) is reported as 503 pg/mL.
